In the supplement of paper PMC10307832:

Experiments:
Assay in all cases: relative viability (nuclei count vs DMSO), 5 days (fraction); higher = more cells survive
NCI-H2126 = test system: NCI-H2126
How it was run: (§1)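 Each reported value is a median over duplicate plates. It expresses relative viability: treated-well nuclei count divided by vehicle-well nuclei count. Lung cancer cell lines in 1536-well plates were dosed by pin tool a day after seeding, alone with one drug or with a fixed anchor-drug dose plus five library-drug doses (not always all listed) in √10 steps, and nuclei were counted after 5 days.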

NCI-H2347 = test system: NCI-H2347
How it was run: as §1

NCI-H23 = test system: NCI-H23
How it was run: as §1

NCI-H3122 = test system: NCI-H3122
How it was run: as §1

NCI-H441 = test system: NCI-H441
How it was run: as §1

NCI-H522 = test system: NCI-H522
How it was run: as §1

NCI-H596 = test system: NCI-H596
How it was run: as §1

NCI-H647 = test system: NCI-H647
How it was run: as §1

NCI-H650 = test system: NCI-H650
How it was run: as §1

NCI-H727 = test system: NCI-H727
How it was run: as §1

NCI-H838 = test system: NCI-H838
How it was run: as §1

`CCN(CC)CCCCNc1ncc2cc(-c3cc(OC)cc(OC)c3)c(NC(=O)NC(C)(C)C)nc2n1` + Cc1cc(Nc2cc(N3CCN(C)CC3)nc(Sc3ccc(NC(=O)C4CC4)cc3)n2)n[nH]1 [Tozasertib] (partner 0.1 µM) gave a relative viability (NCI-H2126; first compound 0.01 µM) of 0.861, a relative viability (NCI-H2126; first compound 0.03162 µM) of 0.859 and a relative viability (NCI-H2126; first compound 0.1 µM) of 1.1. The relative viability (NCI-H2126; first compound 0.3162 µM) was 0.864, the relative viability (NCI-H2126; first compound 1 µM) was 0.798 and the relative viability (NCI-H2347; first compound 0.01 µM) was 0.509. It also gave a relative viability (NCI-H2347; first compound 0.03162 µM) of 0.508, a relative viability (NCI-H2347; first compound 0.1 µM) of 0.718 and a relative viability (NCI-H2347; first compound 0.3162 µM) of 0.607. For the same compound, the relative viability (NCI-H2347; first compound 1 µM) was 0.551, the relative viability (NCI-H23; first compound 0.01 µM) was 0.408 and the relative viability (NCI-H23; first compound 0.03162 µM) was 0.405. For the same compound, the relative viability (NCI-H23; first compound 0.1 µM) was 0.352, the relative viability (NCI-H23; first compound 0.3162 µM) was 0.301 and the relative viability (NCI-H23; first compound 1 µM) was 0.339. It also gave a relative viability (NCI-H3122; first compound 0.01 µM) of 0.559, a relative viability (NCI-H3122; first compound 0.03162 µM) of 0.439 and a relative viability (NCI-H3122; first compound 0.1 µM) of 0.464. For the same compound, the relative viability (NCI-H3122; first compound 0.3162 µM) was 0.326, the relative viability (NCI-H3122; first compound 1 µM) was 0.364 and the relative viability (NCI-H441; first compound 0.01 µM) was 0.544. It also gave a relative viability (NCI-H441; first compound 0.03162 µM) of 0.714, a relative viability (NCI-H441; first compound 0.1 µM) of 0.821 and a relative viability (NCI-H441; first compound 0.3162 µM) of 0.616. It also gave a relative viability (NCI-H441; first compound 1 µM) of 0.597, a relative viability (NCI-H522; first compound 0.01 µM) of 0.529 and a relative viability (NCI-H522; first compound 0.03162 µM) of 0.604. The relative viability (NCI-H522; first compound 0.1 µM) was 0.575, the relative viability (NCI-H522; first compound 0.3162 µM) was 0.49 and the relative viability (NCI-H522; first compound 1 µM) was 0.534. The relative viability (NCI-H596; first compound 0.01 µM) was 0.911, the relative viability (NCI-H596; first compound 0.03162 µM) was 0.903 and the relative viability (NCI-H596; first compound 0.1 µM) was 1.05. It also gave a relative viability (NCI-H596; first compound 0.3162 µM) of 0.828, a relative viability (NCI-H596; first compound 1 µM) of 0.747 and a relative viability (NCI-H647; first compound 0.01 µM) of 0.265. It also gave a relative viability (NCI-H647; first compound 0.03162 µM) of 0.289, a relative viability (NCI-H647; first compound 0.1 µM) of 0.113 and a relative viability (NCI-H647; first compound 0.3162 µM) of 0.332. It also gave a relative viability (NCI-H647; first compound 1 µM) of 0.223, a relative viability (NCI-H650; first compound 0.01 µM) of 0.714 and a relative viability (NCI-H650; first compound 0.03162 µM) of 0.757. For the same compound, the relative viability (NCI-H650; first compound 0.1 µM) was 0.765, the relative viability (NCI-H650; first compound 0.3162 µM) was 0.704 and the relative viability (NCI-H650; first compound 1 µM) was 0.66. The relative viability (NCI-H727; first compound 0.01 µM) was 0.661, the relative viability (NCI-H727; first compound 0.03162 µM) was 0.521 and the relative viability (NCI-H727; first compound 0.1 µM) was 0.571. It also gave a relative viability (NCI-H727; first compound 0.3162 µM) of 0.659, a relative viability (NCI-H727; first compound 1 µM) of 0.525 and a relative viability (NCI-H838; first compound 0.01 µM) of 0.315. The relative viability (NCI-H838; first compound 0.03162 µM) was 0.282, the relative viability (NCI-H838; first compound 0.1 µM) was 0.259 and the relative viability (NCI-H838; first compound 0.3162 µM) was 0.271. It also gave a relative viability (NCI-H838; first compound 1 µM) of 0.205.
